Results published in patent publication US9765115B2, “Inhibitors of metastasis, methods of generating such inhibitors and their therapeutic applications” (Board of Supervisors of Louisiana State University acting …, priority 2011, dated 2017).

Tested on: ZO-1, claudin-3 and occludin
Assay: Subcellular distribution of TJ proteins (immunofluorescence, TX-100 soluble/insoluble fractions)
Format: cell-based
Protocol: Approximately 1×10^4 cells were grown to confluence on 0.4 μm 12-well Transwell™ filters (Costar, Mass.). After overnight serum starvation, cells were treated with or without 50 nM CT for 60 min, fixed with methanol and incubated with primary antisera (rabbit anti-ZO-1 IgG, Zymed, Calrsbad, Calif.; Claudin-3, CTR-FLAG). Immunostaining was visualized after incubation with TRITC-labelled secondary antibody (1:500). Controls with either non-immune goat IgG or no primary antisera were used in all studies. Digital photographs were taken with Retiga 1300 camera connected to a Nikon Optiphot-2 microscope equipped for epifluorescence, the images were captured at different wavelengths for TRITC and DAPI, were given red and blue pseudo colors respectively, and analyzed using IP Lab™ image analysis program.
Confluent 100 mm plates of each PC sublines were serum starved overnight, and treated with or without 50 nM CT for various periods. Soluble extract (cytosolic) was obtained by incubating cells with 10 mM Tris-HCl, pH-7.4 (containing 150 mM NaCl, 2 mM CaCl2, protease-phosphatase inhibitors cocktail, 1% Nonidet P-40 and 1% Triton-X-100) for 30 min with occasional agitation. After washing the plates with TBS (containing protease inhibitors), the insoluble fraction (plasma membrane-associated) was scraped out from the plates with TBS containing 0.5% SDS, 1% Nonidet P-40, protease inhibitors. The triton X-100-insoluble fraction was collected after homogenizing and centrifuging at 14,000×g for 5 min at 4 C, and protein content of the supernatants was determined using Bio-Rad Reagent (Bio-Rad, Hercules, Calif.).
The lysate fractions were boiled for 5 min in 2× Laemmli buffer. The proteins were fractionated by SDS-PAGE electrophoresis, and electrically transferred to a nitrocellulose membrane. The blots were incubated the appropriate antisera followed by HRP-conjugated secondary antibody; and the blots were developed with ECL. To control for protein loading and transfer, the blots were stripped, and reprobed with either β-actin (insoluble) or α-tubulin (soluble) antibody. The same experiment was repeated two more times.
To test whether CT-mediated loss of TJ functionality is caused by disassembly of TJs, subcellular distribution of key TJ proteins was examined. Polarized PC-3CTRwt cells were treated with 50 nM CT for 30 min, and then processed for immunofluorescence with anti-FLAG (CTR), anti-ZO-1 and anti-claudin-3 antibodies.
It is known that junctional proteins are functional only when they are at cell-cell contacts on the membrane (Shin et al., 2006). Therefore, the subcellular distribution of TJ proteins was analyzed by immunoblotting TX-soluble (cytoplasmic) and TX-insoluble (membrane) fractions of cell lysates. […] The endocytosis of TJ proteins was rapid, and increased progressively throughout the experimental period of four hours. Specifically, translocation of ZO-1 from the insoluble to the soluble compartment was quicker and observed within 1 min of CT stimulus. Similar translocation of occludin was observed after ten min, and that of claudin-3 after 30 min of CT stimulus.
To test whether specific PKA inhibitors abrogate CT-induced TJ disassembly, two specific, well-characterized PKA inhibitors, mPKI and H-89, were used. PC-3CTRwt cells were treated with CT (50 nM for 30 min) in the presence of mPKI (100 nM) or H-89 (10 μM). Either of these inhibitors was added 15 min prior to the addition of CT. […]

Question: What does the source list for calcitonin [CT]?
Answer: time to translocation of ZO-1 (CT 50 nM): ≤ 1 min; time to translocation of claudin-3 (CT 50 nM): 30 min; time to translocation of occludin (CT 50 nM): after ten min; localization of CTR, ZO-1 and claudin-3 (immunofluorescence) (PC-3CTRwt cells, 50 nM CT, 30 min): loss of these proteins at cell-cell contacts and their internalization; endocytosis of ZO-1, claudin 3 or occludin (cells expressing CTRΔESS or ZO-1ΔPDZ3, CT 50 nM): could not induce endocytosis
